Laboratory results reported in publication PMC9551036, “A selective and orally bioavailable VHL-recruiting PROTAC achieves SMARCA2 degradation in vivo” (Nature Communications, 2022).
“And” between values parts separate entries of the source, which are not always exact repeats. Equal entries are not always repeated. Where two headings read alike, the source gives them in different places.

Key:
[1] = molecular target: SMARCA2 (Homo sapiens, UniProt P51531); assay: SMARCA2 capillary electrophoresis protein assay in other cell lines (A549, NCI-H1568, HCT116, LU99, HCC-364, HCT-15, HCC4006, SK-N-AS); type: cell-based; parameters: endogenous in cells; host or cells: RKO, NCI-H1568, A549, HCT116, LU99, HCC-364, HCT-15, HCC4006, SK-N-AS
Chain of SMARCA2 (P51531 whole entry): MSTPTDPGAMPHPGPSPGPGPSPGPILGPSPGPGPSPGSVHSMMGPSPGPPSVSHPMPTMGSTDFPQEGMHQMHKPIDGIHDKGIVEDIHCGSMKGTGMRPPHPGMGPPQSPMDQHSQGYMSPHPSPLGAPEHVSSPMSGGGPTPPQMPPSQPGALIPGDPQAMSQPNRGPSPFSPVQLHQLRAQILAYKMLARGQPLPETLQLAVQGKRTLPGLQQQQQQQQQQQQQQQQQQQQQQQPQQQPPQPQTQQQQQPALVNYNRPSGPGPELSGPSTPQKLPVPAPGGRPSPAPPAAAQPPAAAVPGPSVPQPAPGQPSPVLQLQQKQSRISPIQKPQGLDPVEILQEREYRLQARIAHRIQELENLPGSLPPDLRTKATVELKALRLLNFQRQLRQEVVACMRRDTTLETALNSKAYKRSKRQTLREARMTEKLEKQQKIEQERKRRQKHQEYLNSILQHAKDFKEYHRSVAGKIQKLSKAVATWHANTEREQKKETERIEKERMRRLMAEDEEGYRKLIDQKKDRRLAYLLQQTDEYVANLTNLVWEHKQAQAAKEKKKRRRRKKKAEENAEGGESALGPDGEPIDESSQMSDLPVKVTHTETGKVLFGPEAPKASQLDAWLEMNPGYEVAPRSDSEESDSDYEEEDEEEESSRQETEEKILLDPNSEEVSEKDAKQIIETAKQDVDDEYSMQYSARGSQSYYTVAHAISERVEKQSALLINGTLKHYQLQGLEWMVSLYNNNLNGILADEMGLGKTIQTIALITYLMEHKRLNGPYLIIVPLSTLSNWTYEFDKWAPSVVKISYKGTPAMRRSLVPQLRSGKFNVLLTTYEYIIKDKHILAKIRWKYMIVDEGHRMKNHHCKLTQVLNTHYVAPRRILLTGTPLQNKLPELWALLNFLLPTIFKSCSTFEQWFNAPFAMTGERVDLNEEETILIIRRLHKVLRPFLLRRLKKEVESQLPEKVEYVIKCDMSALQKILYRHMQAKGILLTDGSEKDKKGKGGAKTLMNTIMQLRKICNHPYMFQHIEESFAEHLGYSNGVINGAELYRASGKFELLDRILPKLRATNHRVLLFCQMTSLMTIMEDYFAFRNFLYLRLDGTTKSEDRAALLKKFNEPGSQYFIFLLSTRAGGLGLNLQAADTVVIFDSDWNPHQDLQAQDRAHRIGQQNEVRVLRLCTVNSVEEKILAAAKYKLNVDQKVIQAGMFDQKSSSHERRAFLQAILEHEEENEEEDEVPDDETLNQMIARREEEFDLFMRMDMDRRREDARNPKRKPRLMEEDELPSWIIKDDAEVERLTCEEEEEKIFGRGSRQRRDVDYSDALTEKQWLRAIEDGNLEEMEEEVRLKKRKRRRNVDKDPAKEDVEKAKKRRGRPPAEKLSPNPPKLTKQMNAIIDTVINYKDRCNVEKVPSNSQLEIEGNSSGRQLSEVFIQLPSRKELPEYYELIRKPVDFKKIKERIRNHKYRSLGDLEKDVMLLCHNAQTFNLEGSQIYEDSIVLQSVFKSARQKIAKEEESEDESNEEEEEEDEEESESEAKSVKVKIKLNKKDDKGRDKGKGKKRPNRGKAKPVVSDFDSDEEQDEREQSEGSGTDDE
Experimental: 130,000–200,000 cells were seeded in 24-well plates and incubated until settled down or overnight. Compounds were dissolved in DMSO and added to cells in indicated concentrations using a digital dispenser following an optional media change. Cells were incubated for 4 or 18 h as indicated. For SMARCA2/4 half-life determination, 150,000 or 200,000 cells were seeded in 24-well plates. The next day, 50 µg/ml cycloheximide (Sigma) was added and cells were incubated for 1–24 h. For SMARCA2/4 re-synthesis measurements, 200,000 cells were seeded in 24-well plates. The next day, 100 nM compound 6 was added for 4 h to degrade SMARCA2/4, and a sample was taken as baseline for normalisation. To allow re-synthesis, a VHL binder (compound 32, 25 or 50 µM) was then added for 3 or 24 h. Medium was removed, cells were washed with PBS and lysed with 80 µl Lysis Buffer (MSD Tris Lysis Buffer (#R60TX-2) + Halt Inhibitor Cocktail (100x) + Benzonase 0.5 µL/ml). Samples were frozen at −80 °C and thawed at room temperature before use. Samples were transferred to a V-bottom plate and insoluble debris was pelleted by centrifugation for 5 min at maximum speed. The supernatant was transferred to a fresh plate. Master Mix and Ladder were prepared according to manufacturer’s instructions for 12–230 kDa Wes Separation Module, 8 × 25 capillary cartridges, Protein Simple #SM-W004 with Anti-Rabbit Detection Module for Wes, Peggy Sue or Sally Sue, Protein Simple #DM-001. 4.8 µl lysate were mixed with 1.2 µl Master Mix to achieve a protein concentration of ~0.5 µg/µl. Antibodies were diluted in Antibody Diluent II (SMARCA2 Sigma #HPA029981 RRID:AB_10602406 1:25–100, SMARCA4 Cell Signalling #49360 clone D1Q7F RRID:AB_2728743 1:15–120 or Abcam #ab110641 clone EPNCIR111A RRID:AB_10861578 1:60, GAPDH Abcam #ab9485 RRID:AB_307275 1:250). Wes plates were prepared and run according to manufacturer’s instructions. Proteins were quantified with accompanying Compass Software. SMARCA2/4 protein levels were normalised to GAPDH. […] Where applicable, curves were fitted using a 4-parametric logistic model.

[2] = Bidirectional permeability measurement in Caco-2 cells; type: in vitro ADME; details: human
Procedure, shortened: (§1)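 Caco-2 monolayers grown 14–21 days, preincubated 24 h with medium containing 1 µM compound; bidirectional transport sampled up to 2 h, quantified by LC-MS/MS, ± 5 µM zosuquidar (P-gp inhibitor). Papp,AB and Papp,BA from receiver amount, donor C0, area and time; efflux ratio = Papp,BA/Papp,AB (duplicate means). TEER checked per plate.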

[3] = Plasma protein binding; type: in vitro ADME
Experimental: Binding of compound to plasma proteins was determined by equilibrium dialysis of 3 µmol/L compound in plasma (or plasma dilutions in PBS) against PBS through an 8 kDa molecular-weight cut-off cellulose membrane (RED device, Thermo Fisher) at 37 °C for 5 h. After incubation, aliquots from donor and acceptor compartments were precipitated and the concentrations in the supernatants were determined by quantitative LC-MS/MS. Calibration and quality control samples were prepared using blank plasma and internal standard. The fraction unbound was calculated as ratio of the compound concentration in the acceptor compartment to the concentration in the donor compartment.

[4] = tested on: P-gp; assay: Bidirectional permeability measurement in Caco-2 cells; type: in vitro ADME; details: human, Caco-2, pH 7.4, with zosuquidar 5 µM; for Papp B→A at 2 h, 1 µM: Modified Caco-2, b to a, + PGPi (Zosuquidar), read-out: Modified Caco-2 Pba + PGPi (Zosuquidar)
Procedure, shortened: as §1

[5] = NCI-H1568 (4 h), mean ± SD, read-out: SMARCA2 DC50
[6] = NCI-H1568, 4h, individual replicates, read-out: NCI-H1568 (4h) SMARCA2 DC50
[7] = Caco-2, pH 7.4, Caco-2, b to a, read-out: Caco-2 Pba
[8] = Caco-2, pH 7.4, Caco-2, read-out: Caco-2 Efflux ratio
[9] = Caco-2, pH 7.4, Caco-2, read-out: Caco-2 Pab
[10] = bovine, 10% calf plasma dilution in PBS, 10% calf, fraction unbound, read-out: PPB fu 10% Calf
[11] = bovine, 10% plasma (plasma dilution in PBS), 10% calf, read-out: PPB fu 10% Calf
[12] = Caco-2, pH 7.4, Modified Caco-2, b to a, read-out: Modified Caco-2 Pba
[13] = Caco-2, pH 7.4, Modified Caco-2, read-out: Modified Caco-2 Efflux ratio
[14] = Caco-2, pH 7.4, Modified Caco-2, read-out: Modified Caco-2 Pab

## Cc1ncsc1-c1ccc(CNC(=O)[C@@H]2C[C@@H](O)CN2C(=O)[C@@H](NC(=O)C2(F)CC2)C(C)(C)C)c(OCCN2CCC(c3ccc4c(c3)n(C3CCCC3)c3nc(=O)c5c(Br)cccc5n43)CC2)c1 [compound 20]
[1]; [5]
  DC50: > 2.5 µM
[1]; [6]
  DC50: > 2.5 µM

## O=c1nc2n(C3CCCC3)c3ccccc3n2c2cccc(Br)c12 [compound 1]
[2]; [7]
  Papp B→A at 1 µM: 239 nm/s
[2]; [8]
  efflux ratio at 2 h, 1 µM: 0.774
[2]; [9]
  Papp A→B at 1 µM: 310 nm/s

## Cc1ncsc1-c1ccc([C@H](COC(C)CN2CCC(c3ccc4c(c3)n(C3CCCC3)c3nc(=O)c5c(Br)cccc5n43)CC2)NC(=O)[C@@H]2C[C@@H](O)CN2C(=O)[C@@H](NC(=O)C2(F)CC2)C(C)(C)C)cc1 (some centres unmarked) [compound 9]
[3]; 10% calf
  PPB fu 10% Calf: 8.695%
[3]; [10]
  fraction unbound at 5 h, 3 µmol/L: 0.07 ± 0.02
[3]; [11]
  fraction unbound at 5 h, 3 µmol/L: 0.0538
[2]; [7]
  Papp B→A at 1 µM: 340 nm/s
[2]; [9]
  Papp A→B at 1 µM: 60 ± 20 nm/s
[2]; [12]
  Papp B→A at 1 µM: 1700 nm/s
[2]; [13]
  efflux ratio at 2 h, 1 µM: 44.8
[2]; [14]
  Papp A→B at 1 µM: 40 ± 20 nm/s
[4]; Modified Caco-2 + PGPi (Zosuquidar), read-out: Modified Caco-2 + PGPi (Zosuquidar) Pab
  Papp A→B at 1 µM: 120 ± 20 nm/s
[4]
  Papp B→A at 2 h, 1 µM: 190 nm/s
[1]; NCI-H1568 (4 h), mean ± SD
  Dmax: 92 ± 8%
[1]; [5]
  DC50: 0.032 ± 0.017 µM
[1]; [6]
  DC50: 0.0549 µM and 0.0246 µM and 0.0252 µM

## Cc1ncsc1-c1ccc([C@H](CC[C@@H](C)CCN2CCC(c3ccc4c(c3)n(C3CCCC3)c3nc(=O)c5c(Br)cccc5n43)CC2)NC(=O)[C@@H]2C[C@@H](O)CN2C(=O)[C@@H](NC(=O)C2(F)CC2)C(C)(C)C)cc1 [compound 29]
[3]; 10% calf
  PPB fu 10% Calf: <0.144%
[3]; 10% calf, fraction unbound
  PPB fu 10% Calf: <0.14%
[3]; 10% human
  PPB fu 10% Human: <0.052%
[3]
  PPB fu 10% Mouse: <0.335%
[3]; 10% rat
  PPB fu 10% Rat: <0.272%
[3]; human, fraction unbound
  PPB fu Human: <0.05%
[3]; mouse, fraction unbound
  PPB fu Mouse: <0.34%
[3]; rat, fraction unbound
  PPB fu Rat: <0.27%

## Cc1ncsc1-c1ccc([C@H](CCC(C)(C)CCN2CCC(c3ccc4c(c3)n(C3CCCC3)c3nc(=O)c5c(Br)cccc5n43)CC2)NC(=O)[C@@H]2C[C@@H](O)CN2C(=O)[C@@H](NC(=O)C2(F)CC2)C(C)(C)C)cc1 [compound 30]
[3]; 10% calf
  PPB fu 10% Calf: <0.071%
[3]; 10% calf, fraction unbound
  PPB fu 10% Calf: <0.07%

## Cc1ncsc1-c1ccc([C@H](CCCCN2CCC(c3ccc4c(c3)n(C3CCCC3)c3nc(=O)c5c(Br)cccc5n43)CC2)NC(=O)[C@@H]2C[C@@H](O)CN2C(=O)[C@@H](NC(=O)C2(F)CC2)C(C)(C)C)cc1 [compound 25]
[3]; 10% calf
  PPB fu 10% Calf: 0.731%
[3]; 10% calf, fraction unbound
  PPB fu 10% Calf: 0.7%

## Cc1ncsc1-c1ccc([C@H](COCCN2CCC(c3ccc4c(c3)n(C3CCCC3)c3nc(=O)c5c(Br)cccc5n43)CC2)NC(=O)[C@@H]2C[C@@H](O)CN2C(=O)[C@@H](NC(=O)C2(N(C)C)CC2)C(C)(C)C)cc1 [compound 26]
[2]; [7]
  Papp B→A at 1 µM: 154 nm/s
[2]; [9]
  Papp A→B at 1 µM: < 30 nm/s

## CN1CCC(c2ccc3c(c2)n(C2CCCC2)c2nc(=O)c4c(Br)cccc4n32)CC1 [compound 3]
[2]; [7]
  Papp B→A at 1 µM: 217 nm/s
[2]; [8]
  efflux ratio at 2 h, 1 µM: 0.768
[2]; [9]
  Papp A→B at 1 µM: 280 nm/s
[1]; [5]
  DC50: > 2.5 µM
[1]; [6]
  DC50: > 2.5 µM

## Cc1ncsc1-c1ccc([C@H](COC(C)(C)CN2CCC(c3ccc4c(c3)n(C3CCCC3)c3nc(=O)c5c(Br)cccc5n43)CC2)NC(=O)[C@@H]2C[C@@H](O)CN2C(=O)[C@@H](NC(=O)C2(F)CC2)C(C)(C)C)cc1 [compound 28]
[3]; 10% calf
  PPB fu 10% Calf: 1.857% and 2.316%
[3]; 10% calf, fraction unbound
  PPB fu 10% Calf: 2 ± 0.3%
[3]; 10% human
  PPB fu 10% Human: <0.224%
[3]
  PPB fu 10% Mouse: <0.219%
[3]; 10% rat
  PPB fu 10% Rat: <0.231%
[3]; human, fraction unbound
  PPB fu Human: <0.2%
[3]; mouse, fraction unbound
  PPB fu Mouse: <0.2%
[3]; rat, fraction unbound
  PPB fu Rat: <0.2%
[1]; NCI-H1568 (4 h), mean ± SD
  SMARCA2 Dmax: 94 ± 6%
[1]; [5]
  DC50: 0.018 ± 0.013 µM
[1]; [6]
  DC50: 0.00662 µM and 0.0282 µM and 0.0301 µM

## Cc1ncsc1-c1ccc([C@H](CCCCCN2CCC(c3ccc4c(c3)n(C3CCCC3)c3nc(=O)c5c(Br)cccc5n43)CC2)NC(=O)[C@@H]2C[C@@H](O)CN2C(=O)[C@@H](NC(=O)C2(F)CC2)C(C)(C)C)cc1 [compound 11]
[3]; 10% calf
  PPB fu 10% Calf: 0.136%
[3]; 10% human
  PPB fu 10% Human: < 0.043% and < 0.038%
[3]
  PPB fu 10% Mouse: < 0.038% and < 0.228% and 1.281%
[3]; 10% rat
  PPB fu 10% Rat: < 0.044% and < 0.048%
[3]; [10]
  fraction unbound at 5 h, 3 µmol/L: 0.0014
[3]; [11]
  fraction unbound at 5 h, 3 µmol/L: < 0.00092
[3]; human, 10% plasma (plasma dilution in PBS), 10% human, read-out: PPB fu 10% Human
  fraction unbound at 5 h, 3 µmol/L: < 0.00049
[3]; human, plasma, human, fraction unbound, read-out: PPB fu Human
  fraction unbound at 5 h, 3 µmol/L: < 0.0004
[3]; mouse, plasma, mouse, fraction unbound, read-out: PPB fu Mouse
  fraction unbound at 5 h, 3 µmol/L: < 0.0004
[3]; rat, 10% plasma (plasma dilution in PBS), 10% rat, read-out: PPB fu 10% Rat
  fraction unbound at 5 h, 3 µmol/L: < 0.00047
[3]; rat, plasma, rat, fraction unbound, read-out: PPB fu Rat
  fraction unbound at 5 h, 3 µmol/L: < 0.0004
[2]; [9]
  Papp A→B at 1 µM: 14 ± 5 nm/s
[2]; [14]
  Papp A→B at 1 µM: 60 ± 30 nm/s
[4]
  Papp B→A at 2 h, 1 µM: 240 nm/s
[1]; NCI-H1568 (4 h), mean ± SD
  Dmax: 90 ± 0.3%
[1]; [5]
  DC50: 0.008 ± 0.004 µM
[1]; [6]
  DC50: 0.0052 µM and 0.013 µM and 0.0067 µM

## Cc1ncsc1-c1ccc([C@H](CC[C@H](C)CCN2CCC(c3ccc4c(c3)n(C3CCCC3)c3nc(=O)c5c(Br)cccc5n43)CC2)NC(=O)[C@@H]2C[C@H](O)CN2C(=O)[C@@H](NC(=O)C2(F)CC2)C(C)(C)C)cc1 [compound 12]
[2]; Caco-2, pH 7.4, Caco-2, a to b, read-out: Caco-2 Pab
  Papp A→B at 1 µM: 34 nm/s
[2]; [7]
  Papp B→A at 1 µM: 85 nm/s

## Cc1ncsc1-c1ccc([C@H](COC(C)CN2CCC(c3ccc4c(c3)n(C3CCCC3)c3nc(=O)c5c(Br)cccc5n43)CC2)NC(=O)[C@@H]2C[C@@H](O)CN2C(=O)[C@@H](NC(=O)C2(N(C)C)CC2)C(C)(C)C)cc1 (some centres unmarked) [compound 10]
[3]; [10]
  fraction unbound at 5 h, 3 µmol/L: 0.05
[3]; [11]
  fraction unbound at 5 h, 3 µmol/L: 0.0548
[2]; [7]
  Papp B→A at 1 µM: 260 nm/s
[2]; [8]
  efflux ratio at 2 h, 1 µM: 4.64
[2]; [12]
  Papp B→A at 1 µM: 690 nm/s
[2]; [13]
  efflux ratio at 2 h, 1 µM: 36.3
[2]; [14]
  Papp A→B at 1 µM: < 10 nm/s

## Nc1cccc2c1c(=O)nc1n(C3CCCC3)c3ccccc3n21 [compound 2]
[2]; [7]
  Papp B→A at 1 µM: 170 nm/s
[2]; [8]
  efflux ratio at 2 h, 1 µM: 0.459
[2]; [9]
  Papp A→B at 1 µM: 370 nm/s
